15 compounds from patent US11548888B2, “KRas G12C inhibitors” (Mirati Therapeutics, Inc., priority 2019, dated 2023) can be followed below.

T1 sequence (P01116 1-188 isoform P01116-2 G12C): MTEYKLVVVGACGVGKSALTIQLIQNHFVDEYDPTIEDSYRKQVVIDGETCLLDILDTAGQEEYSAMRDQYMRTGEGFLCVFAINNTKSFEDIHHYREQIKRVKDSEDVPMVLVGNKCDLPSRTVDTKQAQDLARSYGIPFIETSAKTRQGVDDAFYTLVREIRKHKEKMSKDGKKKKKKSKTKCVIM

This assay concerns the target T1, KRas G12C (Homo sapiens, UniProt P01116, G12C).
T1 construct: NCI-H358 cells (ATCC CRL-5807) express KRas G12C
Briefly: Inhibition of KRas G12C-dependent cell growth: Phospho-ERK in NCI-H358 cells. In kind it is cell-based. Particulars: NCI-H358 cells expressing KRas G12C; Phospho-ERK (Thr202/Tyr204) normalized to GAPDH; 3 hours compound; 4 parameter fit. Summed up:
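Phospho-ERK read-out in KRas G12C-expressing NCI-H358 cells after 3 h compound treatment (final DMSO 0.5%), by in-cell infrared immunodetection. Signal normalized to GAPDH and to DMSO controls. 4-parameter curve fit gave IC50.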
As for `C=CC(=O)N1CC[C@@H]2[C@H]1CN2c1nc(OC[C@@H]2CCCN2C)nc2c(F)c(-c3cc(O)cc4cccc(Cl)c34)ncc12` [Example 289, 1-((1R, 5R)-6-(7-(8-chloro-3-hydroxynaphthalen-1-yl)-8-fluoro-2-(((S)-1-methylpyrrolidin-2-yl)methoxy)pyrido[4,3-d]pyrimidin-4-yl)-2,6-diazabicyclo[3.2.0]heptan-2-yl)prop-2-en-1-one], the IC50 (commonly the concentration at which inhibition is half-maximal) was 40 nM.

`C#Cc1c(F)ccc2cccc(-c3ncc4c(N5C[C@@H]6[C@H]5CCN6C(=O)C=C)ncnc4c3F)c12` [Example 290, 1-((1R, 5R)-6-(7-(8-ethynyl-7-fluoronaphthalen-1-yl)-8-fluoropyrido[4,3-d]pyrimidin-4-yl)-2,6-diazabicyclo[3.2.0]heptan-2-yl)prop-2-en-1-one] registered an IC50 of 30 nM.

`C#Cc1cccc2cc(O)cc(-c3ncc4c(N5C[C@@H]6[C@H]5CCN6C(=O)C=C)ncnc4c3F)c12` [Example 291, 1-((1R,5R)-6-(7-(8-ethynyl-3-hydroxynaphthalen-1-yl)-8-fluoropyrido[4,3-d]pyrimidin-4-yl)-2,6-diazabicyclo[3.2.0]heptan-2-yl)prop-2-en-1-one] showed an IC50 of 2 nM. With `C#Cc1cccc2cc(O)cc(-c3ncc4c(N5C[C@@H]6[C@H]5CCN6C(=O)C=C)nc(OC[C@@H]5CCCN5C)nc4c3F)c12` [Example 292, 1-((1R,5R)-6-(7-(8-ethynyl-3-hydroxynaphthalen-1-yl)-8-fluoro-2-(((S)-1-methylpyrrolidin-2-yl)methoxy)pyrido[4,3-d]pyrimidin-4-yl)-2,6-diazabicyclo[3.2.0]heptan-2-yl)prop-2-en-1-one] the figure was 20 nM; with `C#Cc1cccc2cc(O)cc(-c3ncc4c(N5C[C@@H]6[C@H]5CCN6C(=O)C=C)nc(OCC56CCCN5CCC6)nc4c3F)c12` [Example 293, 1-((1R, 5R)-6-(7-(8-ethynyl-3-hydroxynaphthalen-1-yl)-8-fluoro-2-((tetrahydro-1H-pyrrolizin-7a(5H)-yl)methoxy)pyrido[4,3-d]pyrimidin-4-yl)-2,6-diazabicyclo[3.2.0]heptan-2-yl)prop-2-en-1-one], 65 nM. With `C#Cc1cccc2cc(Cl)cc(-c3ncc4c(N5C[C@@H]6[C@H]5CCN6C(=O)C=C)ncnc4c3F)c12` [Example 294, 1-((1R,5R)-6-(7-(3-chloro-8-ethynylnaphthalen-1-yl)-8-fluoropyrido[4,3-d]pyrimidin-4-yl)-2,6-diazabicyclo[3.2.0]heptan-2-yl)prop-2-en-1-one] the figure was 2150 nM. With `C#Cc1cccc2cncc(-c3ncc4c(N5C[C@@H]6[C@H]5CCN6C(=O)C=C)ncnc4c3F)c12` [Example 295] the figure was 418 nM.

As for `C#Cc1c(F)ccc2cccc(-c3ncc4c(N5C[C@@H]6[C@H]5CCN6C(=O)C=C)nc(N5CC(N(C)C)C5)nc4c3F)c12` [Example 297], inhibition was half-maximal at 4 nM (IC50). With `C#Cc1cccc2cccc(-c3ncc4c(N5C[C@@H]6[C@H]5CCN6C(=O)C=C)nc(N5CC(N(C)C)C5)nc4c3F)c12` [Example 298] the figure was 24 nM; with `C#Cc1c(F)ccc2cccc(-c3ncc4c(N5C[C@@H]6[C@H]5CCN6C(=O)C(=C)F)ncnc4c3F)c12` [Example 299, 1-((1R,5R)-6-(7-(8-ethynyl-7-fluoronaphthalen-1-yl)-8-fluoropyrido[4,3-d]pyrimidin-4-yl)-2,6-diazabicyclo[3.2.0]heptan-2-yl)-2-fluoroprop-2-en-1-one], 1330 nM; with `C#Cc1c(F)ccc2cccc(-c3ncc4c(N5C[C@@H]6[C@H]5CCN6C(=O)/C=C/C(F)F)ncnc4c3F)c12` [Example 300, (E)-1-((1R,5R)-6-(7-(8-ethynyl-7-fluoronaphthalen-1-yl)-8-fluoropyrido[4,3-d]pyrimidin-4-yl)-2,6-diazabicyclo[3.2.0]heptan-2-yl)-4,4-difluorobut-2-en-1-one], 235 nM. With `C=CC(=O)N1CCN(c2ncnc3c(F)c(-c4c[n+]([O-])cc5ccccc45)ncc23)CC1` [Example 301, 4-(4-(4-acryloylpiperazin-1-yl)-8-fluoropyrido[4,3-d]pyrimidin-7-yl)isoquinoline 2-oxide] the figure was 10000 nM. With `C=CC(=O)N1CCN(c2ncnc3c(F)c(-c4cccc5cc(C)ccc45)ncc23)CC1` [Example 302, 1-(4-(8-fluoro-7-(6-methylnaphthalen-1-yl)pyrido[4,3-d]pyrimidin-4-yl)piperazin-1-yl)prop-2-en-1-one] the figure was 10000 nM; with `C=CC(=O)N1CC[C@@H]2[C@H]1CN2c1ncnc2c(F)c(-c3cccc4cccc(CC)c34)ncc12` [Example 303, 1-((1R, 5R)-6-(7-(8-ethylnaphthalen-1-yl)-8-fluoropyrido[4,3-d]pyrimidin-4-yl)-2,6-diazabicyclo[3.2.0]heptan-2-yl)prop-2-en-1-one], 714 nM; with `C=CC(=O)N1CC[C@@H]2[C@H]1CN2c1ncnc2c(F)c(-c3cccc4ccc(F)c(CC)c34)ncc12` [Example 304, 1-((1R,5R)-6-(7-(8-ethyl-7-fluoronaphthalen-1-yl)-8-fluoropyrido[4,3-d]pyrimidin-4-yl)-2,6-diazabicyclo[3.2.0]heptan-2-yl)prop-2-en-1-one], 456 nM.
